Assay results from paper PMC9952066 (2023).

Columns and labels:
[1] = tested on: r-PQS4 (FEN1 rG4) (RNA, G4) AGGGGCCUGCGGGGACCUGGUGUGGGUGGAGUGGGGAC; experiment: CD titration (loss of 265 nm ellipticity); conditions: 100 mM KCl, 12 mM NaCl; 50 mM Tris-HCl pH 7.4; RNA 5 μM; TMPyP4 added before annealing (legend: pre-folded); disrupts G4
[2] = tested on: FAM-labeled FEN1 rG4 (RNA, G4) AGGGGCCUGCGGGGACCUGGUGUGGGUGGAGUGGGGAC; experiment: native PAGE mobility (G4 unfolding); conditions: 100 mM KCl, 12 mM NaCl; 100 mM KCl in gel; 12% gel, 4 °C; RNA 5 μM; TMPyP4 unfolds rG4
[3] = tested on: r-PQS4 (FEN1 rG4) (RNA, G4) AGGGGCCUGCGGGGACCUGGUGUGGGUGGAGUGGGGAC; experiment: UV-Vis absorption shift; conditions: 100 mM KCl, 12 mM NaCl; 50 mM Tris-HCl pH 7.4; pre-folded RNA 5 μM; TMPyP4 printed as 100 mM

Measured: binding

C[n+]1ccc(-c2c3nc(c(-c4cc[n+](C)cc4)c4ccc([nH]4)c(-c4cc[n+](C)cc4)c4nc(c(-c5cc[n+](C)cc5)c5ccc2[nH]5)C=C4)C=C3)cc1
yes: all assays above
